Results published in PubChem BioAssay (NCI).
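Five concentrations, 48 hours, 96-well plates. GI50: concentration for 50% inhibition of growth. Definition used: TGI = concentration required for complete inhibition of growth.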

How the values were obtained:
Test in all cases: DTP human tumour cell line panel, 48 h; in the data active = GI50 below about 0.43 µM; inactive = the rest
786-0 renal = system: 786-0 renal
A498 renal = system: A498 renal
A549 NSCLC = system: A549 NSCLC
ACHN renal = system: ACHN renal
BT-549 breast = system: BT-549 breast
CAKI-1 renal = system: CAKI-1 renal
CCRF-CEM leukemia = system: CCRF-CEM leukemia
COLO 205 colon = system: COLO 205 colon
DU-145 prostate = system: DU-145 prostate
EKVX NSCLC = system: EKVX NSCLC
HCC-2998 colon = system: HCC-2998 colon
HCT-116 colon = system: HCT-116 colon
HCT-15 colon = system: HCT-15 colon
HOP-62 NSCLC = system: HOP-62 NSCLC
HOP-92 NSCLC = system: HOP-92 NSCLC
HT29 colon = system: HT29 colon
IGROV1 ovarian = system: IGROV1 ovarian
K-562 leukemia = system: K-562 leukemia
KM12 colon = system: KM12 colon
LOX IMVI melanoma = system: LOX IMVI melanoma
MALME-3M melanoma = system: MALME-3M melanoma
MCF7 breast = system: MCF7 breast
MDA-MB-231 breast = system: MDA-MB-231 breast
MOLT-4 leukemia = system: MOLT-4 leukemia
NCI-H226 lung = system: NCI-H226 lung
NCI-H23 lung = system: NCI-H23 lung
NCI-H460 lung = system: NCI-H460 lung
NCI-H522 lung = system: NCI-H522 lung
OVCAR-3 ovarian = system: OVCAR-3 ovarian
OVCAR-4 ovarian = system: OVCAR-4 ovarian
OVCAR-5 ovarian = system: OVCAR-5 ovarian
OVCAR-8 ovarian = system: OVCAR-8 ovarian
PC-3 prostate = system: PC-3 prostate
RPMI-8226 leukemia = system: RPMI-8226 leukemia
SF-268 CNS = system: SF-268 CNS
SF-295 CNS = system: SF-295 CNS
SK-MEL-2 melanoma = system: SK-MEL-2 melanoma
SK-MEL-28 melanoma = system: SK-MEL-28 melanoma
SK-MEL-5 melanoma = system: SK-MEL-5 melanoma
SK-OV-3 ovarian = system: SK-OV-3 ovarian
SN12C renal = system: SN12C renal
SNB-19 CNS = system: SNB-19 CNS
SNB-75 CNS = system: SNB-75 CNS
SR leukemia = system: SR leukemia
SW-620 colon = system: SW-620 colon
T-47D breast = system: T-47D breast
TK-10 renal = system: TK-10 renal
U251 CNS = system: U251 CNS
UACC-257 melanoma = system: UACC-257 melanoma
UACC-62 melanoma = system: UACC-62 melanoma
UO-31 renal = system: UO-31 renal

CC(=O)Nc1cccc(Nc2nccc(N[C@@H](C)c3ccccc3)n2)c1
481 nM: TGI (SK-MEL-5 melanoma)
inactive: GI50 (786-0 renal) 602 nM | GI50 (ACHN renal) 509 nM | GI50 (BT-549 breast) 442 nM | GI50 (HOP-92 NSCLC) 793 nM | GI50 (NCI-H226 lung) 1000 nM | GI50 (OVCAR-4 ovarian) 1020 nM | GI50 (SF-268 CNS) 990 nM | GI50 (SK-MEL-28 melanoma) 703 nM | GI50 (SK-OV-3 ovarian) 675 nM | GI50 (SN12C renal) 559 nM | GI50 (TK-10 renal) 760 nM | GI50 (UACC-257 melanoma) 908 nM
1080 nM: TGI (COLO 205 colon)
active: GI50 (A549 NSCLC) 418 nM | GI50 (CAKI-1 renal) 108 nM | GI50 (CCRF-CEM leukemia) 233 nM | GI50 (COLO 205 colon) 262 nM | GI50 (DU-145 prostate) 383 nM | GI50 (EKVX NSCLC) 363 nM | GI50 (HCC-2998 colon) 423 nM | GI50 (HCT-116 colon) 276 nM | GI50 (HCT-15 colon) 121 nM | GI50 (HOP-62 NSCLC) 345 nM | GI50 (HT29 colon) 194 nM | GI50 (IGROV1 ovarian) 370 nM | GI50 (K-562 leukemia) 49.8 nM | GI50 (KM12 colon) 104 nM | GI50 (LOX IMVI melanoma) 390 nM | GI50 (MALME-3M melanoma) 102 nM | GI50 (MCF7 breast) 171 nM | GI50 (MDA-MB-231 breast) 416 nM | GI50 (MOLT-4 leukemia) 327 nM | GI50 (NCI-H23 lung) 239 nM | GI50 (NCI-H460 lung) 246 nM | GI50 (NCI-H522 lung) 129 nM | GI50 (OVCAR-3 ovarian) 118 nM | GI50 (OVCAR-5 ovarian) 409 nM | GI50 (OVCAR-8 ovarian) 363 nM | GI50 (PC-3 prostate) 319 nM | GI50 (RPMI-8226 leukemia) 293 nM | GI50 (SF-295 CNS) 110 nM | GI50 (SK-MEL-2 melanoma) 180 nM | GI50 (SK-MEL-5 melanoma) 125 nM | GI50 (SNB-19 CNS) 335 nM | GI50 (SNB-75 CNS) 119 nM | GI50 (SR leukemia) 45.3 nM | GI50 (SW-620 colon) 194 nM | GI50 (T-47D breast) 331 nM | GI50 (U251 CNS) 289 nM | GI50 (UACC-62 melanoma) 126 nM | GI50 (UO-31 renal) 372 nM
522 nM: TGI (SF-295 CNS)
> 10000 nM: TGI (786-0 renal) | TGI (A498 renal) | TGI (A549 NSCLC) | TGI (ACHN renal) | TGI (BT-549 breast) | TGI (CAKI-1 renal) | TGI (CCRF-CEM leukemia) | TGI (DU-145 prostate) | TGI (EKVX NSCLC) | TGI (HCC-2998 colon) | TGI (HCT-116 colon) | TGI (HCT-15 colon) | TGI (HOP-62 NSCLC) | TGI (HOP-92 NSCLC) | TGI (HT29 colon) | TGI (IGROV1 ovarian) | TGI (K-562 leukemia) | TGI (KM12 colon) | TGI (LOX IMVI melanoma) | TGI (MALME-3M melanoma) | TGI (MCF7 breast) | TGI (MDA-MB-231 breast) | TGI (MOLT-4 leukemia) | TGI (NCI-H226 lung) | TGI (NCI-H23 lung) | TGI (NCI-H460 lung) | TGI (OVCAR-3 ovarian) | TGI (OVCAR-4 ovarian) | TGI (OVCAR-5 ovarian) | TGI (OVCAR-8 ovarian) | TGI (PC-3 prostate) | TGI (RPMI-8226 leukemia) | TGI (SF-268 CNS) | TGI (SK-MEL-2 melanoma) | TGI (SK-MEL-28 melanoma) | TGI (SK-OV-3 ovarian) | TGI (SN12C renal) | TGI (SNB-19 CNS) | TGI (SNB-75 CNS) | TGI (SR leukemia) | TGI (SW-620 colon) | TGI (T-47D breast) | TGI (TK-10 renal) | TGI (U251 CNS) | TGI (UACC-257 melanoma) | TGI (UACC-62 melanoma) | TGI (UO-31 renal)
1240 nM: TGI (NCI-H522 lung)
